Measured values from patent US20200399335A1, “MODIFIED IMMUNOMODULATORY PEPTIDE” (Aarhus Universitet, priority 2018, published 2020).
Where no end group is shown, it is not given here. The star is where a group is joined. Biotin = O=C1N[C@H]2[C@H](CS[C@H]2CCCCC(=O)*)N1

Assays:
STING activation [1] = details: previously shown; no details given; cited from earlier work
STING activation [2] = details: PBMCs of two donors with wildtype STING, peptide priming then HT-DNA, 20 hours; vs parental SEQ ID NO.6
Experimental: Both donors carried STING wildtype proteins allowing us to evaluate important amino acid positions within the polypeptide.
(§1) Peripheral Blood Mononuclear cells (PBMCs) were isolated from healthy donors by Ficoll Paque gradient centrifugation (GE Healthcare). PBMCs were cultured in RPMI complete supplemented with IL-2.
(§2) To quantify functional type I IFN the reporter cell line HEK-Blue™ IFN-α/β (InvivoGen) was utilized according to the manufacturer's instructions. […] This cell line expresses secreted embryonic alkaline phosphatase under the control of the IFN-α/β inducible ISG54 promotor. SEAP activity was assessed by measuring optical density (OD) at 620 nm on a micro plate reader (ELx808, BioTEK). The standard range was made with IFN-α (A2) (PBL Assay Science).
(§3) Protein levels of the cytokines CXCL10 and IL6 in supernatants, were measured using DuoSet ELISA kits from RnD following the manufacturer's instructions.

STING activation [3] = assay: Screening of alanine modified peptides in PMA-differentiated THP1 cells stimulated with 2′3′cGAMP; details: PMA-treated THP1 (STING HAQ), peptide pre-stimulation 1 hour, then 2′3′cGAMP, supernatant 20 hours; alanine variant vs SEQ ID NO.6
From the text: Screening of alanine modified peptides in THP1 cells. […] THP1 cells were differentiated into macrophages using PMA. […] Twenty hours later supernatants were harvest and used to assess the production of type I IFN (A) or CXCL10 (B). Data represent the mean±SD of biological triplicates, representative of two independent experiments
as §2, §3

HSV-1 GFP = HSV-1 GFP infection of human fibroblast, flow cytometry 48 hpi; details: for viral inhibition of alanine variant compared with SEQ ID NO.6 / viral inhibition: HSV-1 GFP MOI 0.05, 48 hpi
From the text: Screening of alanine modified peptides in human fibroblasts.
Data was processed in FlowJo (Tree Star)

[4] = Circular dichroism spectrum of polypeptides; assay type: physicochemical; details: in the recommended buffer
From the text: FIG. 5. CD spectra of polypeptides with specific alanine mutations.
The Example illustrate the CD spectrum of polypeptide (SEQ ID NO. 6) and two alanine mutations (SEQ ID NO. 17 and 19). […] FIG. 5.

STING activity = details: PBMCs from two donors, peptide pre-treatment then cGAMP; vs peptide 101
Experimental: as §1, §2, §3

human fibroblast = assay: Cell viability test in human fibroblast (CellTiter-Glo); assay type: cell-based; details: 48 hpi
Experimental: FIG. 8. Cell viability test. […] As a positive control for cell death, human fibroblast was treated with staurosporine (500 nM). Cell viability was analyzed 48 hpi.
The highest peptide concentration utilized in the present studies reached a maximum cell death percentage of less than 10%; cf. FIG. 8.
Viability tests were conducted using the CellTiter-Glo® 2.0 Assay (Promega, G9242). Each sample was conducted in technical triplicates and luminescence data analyzed.

Biotin-EDIPTLEDLAETLKKEKLKGRKKRRQRRRPQ-NH2 [S7]
synergistic effects on STING activation (STING activation [1]): not to lead to synergistic effects on STING activation

KAYKNIVLLKGLEVINDYHF ((1)..(20) An immunomodulatory polypeptide derived from the pyrin domain of human IFI16 with amino acid residue changes.) [peptide A2]
secretion of interleukin IL6 (STING activation [2]): very potent and synergistic effect | secretion of the chemokine CXCL10 (STING activation [2]): partly impaired CXCL10 | synergistic effect of supporting STING activation: induction of type I IFNs (STING activation [3]): affected polypeptide synergistic effects

KKAKNIVLLKGLEVINDYHF ((1)..(20) An immunomodulatory polypeptide derived from the pyrin domain of human IFI16 with amino acid residue changes.) [peptide A3]
secretion of interleukin IL6 (STING activation [2]): very potent and synergistic effect

KKYKNAVLLKGLEVINDYHF ((1)..(20) An immunomodulatory polypeptide derived from the pyrin domain of human IFI16 with amino acid residue changes.) [peptide A6]
viral inhibition of alanine variant compared with SEQ ID NO.6 (HSV-1 GFP): depleted | secretion of interleukin IL6 (STING activation [2]): prohibited the synergistic effects | synergistic effect of supporting STING activation: induction of type I IFNs (STING activation [3]): affected polypeptide synergistic effects

KKYKNIALLKGLEVINDYHF ((1)..(20) An immunomodulatory polypeptide derived from the pyrin domain of human IFI16 with amino acid residue changes.) [peptide A7]
viral inhibition of alanine variant compared with SEQ ID NO.6 (HSV-1 GFP): depleted | secretion of interleukin IL6 (STING activation [2]): prohibited the synergistic effects

KKYKNIVALKGLEVINDYHF ((1)..(20) An immunomodulatory polypeptide derived from the pyrin domain of human IFI16 with amino acid residue changes.) [peptide A8]
synergistic effect of supporting STING activation: induction of type I IFNs (STING activation [3]): affected polypeptide synergistic effects

KKYKNIVLAKGLEVINDYHF ((1)..(20) An immunomodulatory polypeptide derived from the pyrin domain of human IFI16 with amino acid residue changes.) [peptide A9]
synergistic effect of supporting STING activation: induction of type I IFNs (STING activation [3]): affected polypeptide synergistic effects

KKYKNIVLLAGLEVINDYHF ((1)..(20) An immunomodulatory polypeptide derived from the pyrin domain of human IFI16 with amino acid residue changes.) [peptide A10]
viral inhibition (HSV-1 GFP): ~100% | antiviral effect compared with polypeptide NO. 6 at increased MOI (HSV-1 GFP; HSV-1 GFP MOI 0.1, 25 μg/mL, 48 hpi): increased effect | secretion of interleukin IL6 (STING activation [2]): damped IL6 secretion | secretion of the chemokine CXCL10 (STING activation [2]): without affecting CXL10 responses | type I IFN responses (STING activation [2]): significantly increased type I IFN responses | synergistic effect of supporting STING activation: induction of type I IFNs (STING activation [3]): affected polypeptide synergistic effects

KKYKNIVLLKALEVINDYHF ((1)..(20) An immunomodulatory polypeptide derived from the pyrin domain of human IFI16 with amino acid residue changes.) [peptide A11]
secondary structure from CD spectrum [4]: random coil-coil formation | synergistic effect of supporting STING activation: CXCL10 cytokine secretion (STING activation [3]): strongly affected the synergistic effects

KKYKNIVLLKGAEVINDYHF ((1)..(20) An immunomodulatory polypeptide derived from the pyrin domain of human IFI16 with amino acid residue changes.) [peptide A12]
synergistic effect of supporting STING activation: induction of type I IFNs (STING activation [3]): affected polypeptide synergistic effects

KKYKNIVLLKGLAVINDYAA ((1)..(20) An immunomodulatory polypeptide derived from the pyrin domain of human IFI16 with amino acid residue changes.) [peptide 107]
CXCL10 secretion (STING activity): supported increased IFN and CXCL10 secretion | IFN secretion (STING activity): supported increased IFN and CXCL10 secretion | IL6 response (STING activity): impaired the IL6 response

KKYKNIVLLKGLAVINDYHF ((1)..(20) An immunomodulatory polypeptide derived from the pyrin domain of human IFI16 with amino acid residue changes.) [peptide A13]
secondary structure from CD spectrum [4]: random coil-coil formation | secretion of the chemokine CXCL10 (STING activation [2]): without affecting CXL10 responses | type I IFN responses (STING activation [2]): significantly increased type I IFN responses | synergistic effect of supporting STING activation: CXCL10 cytokine secretion (STING activation [3]): strongly affected the synergistic effects | synergistic effect of supporting STING activation: induction of type I IFNs (STING activation [3]): affected polypeptide synergistic effects

KKYKNIVLLKGLEAINDYHF ((1)..(20) An immunomodulatory polypeptide derived from the pyrin domain of human IFI16 with amino acid residue changes.) [peptide A14]
viral inhibition of alanine variant compared with SEQ ID NO.6 (HSV-1 GFP): decreased

KKYKNIVLLKGLEVANDYHF ((1)..(20) An immunomodulatory polypeptide derived from the pyrin domain of human IFI16 with amino acid residue changes.) [peptide A15]
secretion of interleukin IL6 (STING activation [2]): prohibited the synergistic effects

KKYKNIVLLKGLEVIADYHF ((1)..(20) An immunomodulatory polypeptide derived from the pyrin domain of human IFI16 with amino acid residue changes.) [peptide A16]
secretion of interleukin IL6 (STING activation [2]): prohibited the synergistic effects

KKYKNIVLLKGLEVINAYHF ((1)..(20) An immunomodulatory polypeptide derived from the pyrin domain of human IFI16 with amino acid residue changes.) [peptide A17]
viral inhibition (HSV-1 GFP): ~100%

KKYKNIVLLKGLEVINDYAF ((1)..(20) An immunomodulatory polypeptide derived from the pyrin domain of human IFI16 with amino acid residue changes.) [peptide A19]
synergistic effect of supporting STING activation: CXCL10 cytokine secretion (STING activation [3]): strongly affected the synergistic effects

KKYKNIVLLKGLEVINDYHA ((1)..(20) An immunomodulatory polypeptide derived from the pyrin domain of human IFI16 with amino acid residue changes.) [peptide A20]
synergistic effect of supporting STING activation: CXCL10 cytokine secretion (STING activation [3]): strongly affected the synergistic effects

KKYKNIVLLKGLEVINDYHF-NH2 [peptide 101]
toxicity in human fibroblast (human fibroblast; HSV-1 GFP, HSV-2 GFP (MOI 0.05) or uninfected): no toxicity | maximum cell death percentage (human fibroblast; highest peptide concentration utilized (80 μg/mL)): less than 10%
